Assay results as given in patent US12435061B2 (priority 2020, dated 2025).
Converted amounts (≈) assume the structure as drawn. Read-outs that look alike come from different tables or passages of the source.

What was measured:
[1] = Metabolic Stability assay, rat liver microsomes; type: in vitro ADME
Procedure: Metabolic Stability assay: The metabolic stability was determined by adding compound dissolved in DMSO to human or rat, liver microsomes. Briefly, assays were run with a starting concentration of 1 μM test article. The reaction was started by addition of NADPH regeneration components at 37° C. at which time an aliquot was immediately quenched in ice-cold acetonitrile/MeOH/H2O solution. Reaction mixture was incubated at 37° C. on a shaker, and additional aliquots were taken at 7, 15, 30 and 60 minutes. Following quench and centrifugation, samples were analyzed on HPLC/MS/MS.

hTRPV3 = hTRPV3 (Homo sapiens (Human), UniProt Q8NET8); assay: Whole-cell patch clamp, hTRPV3 Phase 1 / Phase 2 currents; type: cell-based
Outline: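 Currents are activated by 20 μM 2-APB or by perfusate at 28 °C or warmer, in Ringer's solution, and quantified at ±80 mV.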

[2] = Aqueous solubility assay in Normal Ringer Solution; conditions: Normal Ringer Solution; for solubility at 40 min: saline or isotonic, kinetic from dmso stock
Procedure: Following vortex and incubation for a sufficient time (e.g. 40 minutes at room temperature), solutions were filtered, quenched with acetonitrile, and analyzed by Liquid Chromotography. Solubility Limits were determined by comparison to a standard curve.

[3] = Phase 1 current, inward, whole-cell patch clamp, read-out: hTRPV3 Patch P1 Inwd
[4] = Phase 1 current, read-out: hTRPV3 (nM) (Phase 1)
[5] = Phase 2 current, inward, whole-cell patch clamp, read-out: hTRPV3 Patch P2 Inwd
[6] = Phase 2 current, read-out: hTRPV3 (nM) (Phase 2)
[7] = Phase 1 current, human TRPV3, read-out: hTRPV3 (nM) Phase 1

Sequence of hTRPV3 (Q8NET8 whole entry): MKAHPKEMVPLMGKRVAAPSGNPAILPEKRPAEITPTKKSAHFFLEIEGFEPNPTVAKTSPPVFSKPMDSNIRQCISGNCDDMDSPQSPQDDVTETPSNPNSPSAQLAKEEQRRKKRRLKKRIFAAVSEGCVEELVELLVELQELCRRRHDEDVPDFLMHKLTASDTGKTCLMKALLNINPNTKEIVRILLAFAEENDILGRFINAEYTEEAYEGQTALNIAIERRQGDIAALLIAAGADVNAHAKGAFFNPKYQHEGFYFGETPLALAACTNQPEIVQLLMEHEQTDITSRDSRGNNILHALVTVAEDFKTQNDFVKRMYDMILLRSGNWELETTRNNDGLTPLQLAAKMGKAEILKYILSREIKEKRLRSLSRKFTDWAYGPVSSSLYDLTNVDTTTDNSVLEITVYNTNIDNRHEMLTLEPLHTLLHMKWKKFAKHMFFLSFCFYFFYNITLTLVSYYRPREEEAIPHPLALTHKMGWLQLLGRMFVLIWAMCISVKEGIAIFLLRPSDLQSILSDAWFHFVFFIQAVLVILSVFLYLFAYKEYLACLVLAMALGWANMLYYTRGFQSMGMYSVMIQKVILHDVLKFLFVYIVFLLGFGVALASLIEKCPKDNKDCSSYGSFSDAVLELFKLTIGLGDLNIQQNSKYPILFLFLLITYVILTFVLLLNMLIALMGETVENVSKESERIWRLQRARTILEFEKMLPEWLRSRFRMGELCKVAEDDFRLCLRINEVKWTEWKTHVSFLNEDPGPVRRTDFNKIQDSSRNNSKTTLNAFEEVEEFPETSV

| SMILES | half-life at 1 μM ([1]; read-out: LM T1/2 (min) (rat)) | IC50 (hTRPV3; [3]) | IC50 (hTRPV3; [4]) | IC50 (hTRPV3; [5]) | IC50 (hTRPV3; [6]) | solubility at 40 min [2] | Solubility Ringer (nM) ([2]; room temperature) | half-life at 1 μM ([1]; read-out: LM T1/2 (min) rat) | IC50 (hTRPV3; [7]) |
| --- | --- | --- | --- | --- | --- | --- | --- | --- | --- |
| CCc1cc(F)ccc1Oc1ccc(N2CC[C@H](Oc3ccccn3)C2)c(CO)c1 [Compound 1-330] | 24.8 min | 10 to 100 nM | 49.5 nM | 10 to 100 nM | 56.6 nM |  |  |  |  |
| OCc1cc(Oc2ccccc2Cl)ccc1N1CC[C@H](Nc2ncccc2Cl)C1 [Compound 1-382, (S)-(5-(2-chlorophenoxy)-2-(3-(3-chloropyridin-2-ylamino)pyrrolidin-1-yl)phenyl)methanol] |  | 10 to 100 nM | 30.9 nM |  |  | 0.5 µM (≈ 0.215 µg/mL) |  |  |  |
| OCc1cc(-c2ccccc2)ccc1N1CC[C@H](Nc2nc(C(F)(F)F)cs2)C1 [Compound 1-394, (S)-(4-(3-(4-(trifluoromethyl)thiazol-2-ylamino)pyrrolidin-1-yl)biphenyl-3-yl)methanol] |  | 100 to 1000 nM | 616 nM | 100 to 1000 nM | 496 nM | 1.87 µM (≈ 0.784 µg/mL) |  |  |  |
| OCc1cc(-c2ccccc2)ccc1N1CC[C@H](Oc2nc(C(F)(F)F)cs2)C1 [Compound 1-395, (S)-(4-(3-(4-(trifluoromethyl)thiazol-2-yloxy)pyrrolidin-1-yl)biphenyl-3-yl)methanol] |  | > 1000 nM | > 3200 nM | > 1000 nM | > 3200 nM |  | BLQ |  |  |
| CC(C)c1ccccc1Oc1ccc(C2CCN(C(=O)c3ccc(Cl)cn3)C2)c(CO)c1 (stereo not drawn) [Compound 2-17, (5-chloropyridin-2-yl)(3-(2-(hydroxymethyl)-4-(2-isopropylphenoxy)phenyl)pyrrolidin-1-yl)methanone] |  | 10 to 100 nM |  |  |  |  |  | 7.93 min | 57.4 nM |
| Cc1cccnc1C(=O)N1CCC(c2ccc(Oc3ccccc3C(C)C)cc2CO)C1 (stereo not drawn) [Compound 2-18, (3-(2-(hydroxymethyl)-4-(2-isopropylphenoxy)phenyl)pyrrolidin-1-yl)(3-methylpyridin-2-yl)methanone] |  | 100 to 1000 nM |  |  |  |  |  | 7.81 min | 314 nM |
| CCc1ccccc1-c1ccc(C2CCN(C(=O)c3ccccn3)C2)c(CO)c1 (stereo not drawn) [Compound 2-27, (3-(2′-ethyl-3-(hydroxymethyl)biphenyl-4-yl)pyrrolidin-1-yl)(pyridin-2-yl)methanone] |  | 10 to 100 nM |  |  |  |  |  | 12.9 min | 73 nM |
| CC(C)c1ccccc1Oc1ccc(C2CCN(C(=O)c3ccc(Cl)cn3)C2)c(C(N)=O)c1 (stereo not drawn) [Compound 2-32, 2-(1-(5-chloropicolinoyl)pyrrolidin-3-yl)-5-(2-isopropylphenoxy)benzamide] |  | 100 to 1000 nM |  |  |  |  |  | 6.86 min | 677 nM |
| Cc1cccc(C(=O)N2CCC(c3ccc(Oc4ccccc4C(C)C)cc3C(N)=O)C2)n1 (stereo not drawn) [Compound 2-33, 5-(2-isopropylphenoxy)-2-(1-(6-methylpicolinoyl)pyrrolidin-3-yl)benzamide] |  | 100 to 1000 nM |  |  |  |  |  | 11 min | 645 nM |
| CCc1ccccc1-c1ccc(C2CCN(C(=O)c3ccc(F)cn3)C2)c(C(N)=O)c1 (stereo not drawn) [Compound 2-34, 2′-ethyl-4-(1-(5-fluoropicolinoyl)pyrrolidin-3-yl)biphenyl-3-carboxamide] |  | 100 to 1000 nM |  |  |  |  |  | 26.4 min | 337 nM |
| CC(C)c1ccccc1-c1ccc(C2CCN(C(=O)c3ncccc3Cl)C2)c(CO)c1 (stereo not drawn) [Compound 2-36] |  | 10 to 100 nM |  |  |  |  |  | 11.2 min | 39.3 nM |
| O=C(c1cccc(Cl)n1)N1CCC(c2ccc(-c3ccccc3C3CC3)cc2CO)C1 (stereo not drawn) [Compound 2-57, (6-chloropyridin-2-yl)(3-(2′-cyclopropyl-3-(hydroxymethyl)biphenyl-4-yl)pyrrolidin-1-yl)methanone] |  | < 10 nM |  |  |  |  |  | 32.3 min | 7.34 nM |
| Cc1ccc(C(=O)N2CCC(c3ccc(-c4ccccc4C(C)C)cc3CO)C2)nc1 (stereo not drawn) [Compound 2-79] |  | 10 to 100 nM |  |  |  | 7.38 µM (≈ 3.06 µg/mL) |  |  | 19.8 nM |
| Cc1ccccc1Oc1ccc(C2CCN(Cc3ncccc3Cl)C2)c(CO)c1 (stereo not drawn) [Compound 2-86] |  | 100 to 1000 nM |  |  |  | ~2.2 µM (≈ 0.9 µg/mL) |  |  | 226 nM |
